Legend:
VEGFR2 = VEGFR2 (Homo sapiens, UniProt P35968); assay: Inhibition of VEGF-induced VEGFR2 autophosphorylation (pVEGFR2) in HUVEC cells, ELISA; type: cell-based; design: endogenous in cells; host or cells: HUVEC; conditions: 50 ng/mL human VEGF, compound 1 h
Outline: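 HUVEC seeded overnight, pretreated 1 h at 37 °C with compound (8-point 3-fold dilution series), then stimulated 5 min with human VEGF at 50 ng/mL final. Lysate pVEGFR2 quantified by sandwich ELISA with TMB read-out at 450 nm; IC50 from 4-parameter logistic fit of % inhibition.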

HUVEC cells = assay: Inhibition of VEGF-induced HUVEC cell proliferation, CellTiter Glo; type: cell-based; conditions: Homo sapiens, 20 ng/ml VEGF, 72 hours
Outline: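 HUVEC (4000/well) serum-starved overnight in RPMI-1640 with 5% FBS, compound added 1 h before VEGF (20 ng/ml final in controls). After 72 h at 37 °C, viable cells were quantified by CellTiter-Glo luminescence; % inhibition fitted against log concentration, DMSO+VEGF wells as high control and cell-free wells as low.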

EGFR = target: T1, EGFR (Homo sapiens, UniProt P00533); assay: Kinase inhibition, Mobility Shift Assay/IMAP, EGFR; type: biochemical
T1 construct: purchased Carna 08-115
Outline: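 Substrate conversion (phosphorylated vs non-phosphorylated) read by mobility shift on Caliper EZ Reader II and converted to % inhibition relative to no-enzyme and DMSO controls. IC50 fitted from % inhibition versus log compound concentration.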

Sequence of VEGFR2 (P35968 20-1356): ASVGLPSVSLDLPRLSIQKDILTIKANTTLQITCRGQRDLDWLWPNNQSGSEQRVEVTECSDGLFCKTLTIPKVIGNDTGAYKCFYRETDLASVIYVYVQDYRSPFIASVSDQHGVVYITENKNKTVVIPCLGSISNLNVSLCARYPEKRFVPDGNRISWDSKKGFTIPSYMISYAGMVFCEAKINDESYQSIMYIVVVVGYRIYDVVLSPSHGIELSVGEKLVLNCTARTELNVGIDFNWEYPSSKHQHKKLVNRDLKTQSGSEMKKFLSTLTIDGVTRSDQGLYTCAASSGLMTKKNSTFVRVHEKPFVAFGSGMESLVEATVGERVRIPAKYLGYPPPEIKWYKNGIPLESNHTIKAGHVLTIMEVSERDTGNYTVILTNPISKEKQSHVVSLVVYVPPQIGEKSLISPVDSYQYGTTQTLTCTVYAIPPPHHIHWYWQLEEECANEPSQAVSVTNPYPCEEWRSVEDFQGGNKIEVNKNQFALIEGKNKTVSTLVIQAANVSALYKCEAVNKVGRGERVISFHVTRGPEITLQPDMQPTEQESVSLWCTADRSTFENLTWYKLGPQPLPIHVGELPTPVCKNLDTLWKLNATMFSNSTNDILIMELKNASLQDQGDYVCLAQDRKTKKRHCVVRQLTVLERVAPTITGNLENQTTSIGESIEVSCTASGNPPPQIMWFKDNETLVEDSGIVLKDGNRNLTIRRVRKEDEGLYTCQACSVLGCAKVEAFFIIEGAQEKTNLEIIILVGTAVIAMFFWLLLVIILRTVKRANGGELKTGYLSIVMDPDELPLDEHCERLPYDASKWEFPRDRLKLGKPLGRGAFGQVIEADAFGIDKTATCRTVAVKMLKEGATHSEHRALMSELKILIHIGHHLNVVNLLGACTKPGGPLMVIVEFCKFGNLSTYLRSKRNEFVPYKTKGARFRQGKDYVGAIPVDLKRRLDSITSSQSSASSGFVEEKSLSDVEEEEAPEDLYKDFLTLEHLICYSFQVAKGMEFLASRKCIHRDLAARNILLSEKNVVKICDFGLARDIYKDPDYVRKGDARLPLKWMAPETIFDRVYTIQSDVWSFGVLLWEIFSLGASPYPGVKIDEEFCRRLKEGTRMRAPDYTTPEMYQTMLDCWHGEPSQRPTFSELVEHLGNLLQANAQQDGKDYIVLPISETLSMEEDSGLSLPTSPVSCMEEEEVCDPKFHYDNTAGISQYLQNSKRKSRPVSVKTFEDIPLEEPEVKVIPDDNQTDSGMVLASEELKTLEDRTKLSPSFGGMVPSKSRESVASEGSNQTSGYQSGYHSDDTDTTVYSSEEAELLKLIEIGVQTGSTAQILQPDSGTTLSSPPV
T1 sequence (P00533 669-1210 limits assumed): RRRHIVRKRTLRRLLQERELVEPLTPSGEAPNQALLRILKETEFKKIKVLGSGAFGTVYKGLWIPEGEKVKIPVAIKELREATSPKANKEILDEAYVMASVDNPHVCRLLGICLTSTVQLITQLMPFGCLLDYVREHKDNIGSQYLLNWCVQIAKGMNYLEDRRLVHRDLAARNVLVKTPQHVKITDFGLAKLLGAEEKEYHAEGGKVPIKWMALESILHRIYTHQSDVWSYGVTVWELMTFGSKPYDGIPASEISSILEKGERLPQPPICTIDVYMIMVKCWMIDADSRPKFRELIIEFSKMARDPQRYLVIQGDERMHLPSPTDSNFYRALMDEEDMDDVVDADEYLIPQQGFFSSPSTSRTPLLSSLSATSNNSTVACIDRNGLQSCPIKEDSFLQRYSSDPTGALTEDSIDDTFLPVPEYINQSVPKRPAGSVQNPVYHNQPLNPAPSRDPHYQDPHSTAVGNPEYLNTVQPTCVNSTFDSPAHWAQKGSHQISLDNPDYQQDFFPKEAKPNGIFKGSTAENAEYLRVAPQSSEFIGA

| SMILES | IC50 (VEGFR2) [µM] | IC50 (EGFR) [µM] | IC50 (HUVEC cells) [µM] |
| --- | --- | --- | --- |
| NC(=O)c1c(OCc2cc(C(=O)NC3CC3)ccc2F)nsc1NC(=O)NCCCN1CC[C@H](F)C1 [Compound T116, 3-[[5-(cyclopropylcarbamoyl)-2-fluoro-phenyl]methoxy]-5-[3-[(3S)-3-fluoropyrrolidin-1-yl]propylcarbamoylamino]isothiazole-4-carboxamide] | 0.061 | 18 | 0.021 |
| CN1CCN(CCCNC(=O)Nc2snc(OCc3cc4c(cc3F)CCO4)c2C(N)=O)CC1 [Compound T101, 3-[(5-fluoro-2,3-dihydrobenzofuran-6-yl)methoxy]-5-[3-(4-methylpiperazin-1-yl)propylcarbamoylamino] isothiazole-4-carboxamide] | 0.103 | 9.16 | 0.0486 |
| CN1CCN(CCCNC(=O)Nc2snc(OCc3cc(C(=O)NC4CC4)ccc3F)c2C(N)=O)CC1 [Compound T118, 3-[[5-(cyclopropylcarbamoyl)-2-fluoro-phenyl]methoxy]-5-[3-(4-methylpiperazin-1-yl)propylcarbamoylamino]isothiazole-4-carboxamide] | 0.0483 | 8.96 | 0.039 |
| NC(=O)c1c(OCc2cc(C(=O)NC3CC3)ccc2F)nsc1NC(=O)NCCCCN1CCCC1 [Compound T087, 3-[[5-(cyclopropylcarbamoyl)-2-fluoro-phenyl]methoxy]-5-(4-pyrrolidin-1-ylbutylcarbamoylamino)isothiazole-4-carboxamide] | 0.03 | 15.2 | 0.0454 |
| NC(=O)c1c(OCc2cc3c(cc2F)CCO3)nsc1NC(=O)NCCCCN1CC[C@@H](O)C1 [Compound T091, 3-[(5-fluoro-2,3-dihydrobenzofuran-6-yl)methoxy]-5-[4-[(3R)-3-hydroxypyrrolidin-1-yl]butylcarbamoylamino] isothiazole-4-carboxamide] | 0.087 | 9.89 | 0.036 |

Second part, led by results:

| IC50 (VEGFR2) [µM] | IC50 (EGFR) [µM] | SMILES | IC50 (HUVEC cells) [µM] |
| --- | --- | --- | --- |
| 0.0163 | > 60 | NC(=O)c1c(OCc2c(F)ccc(C(=O)NC3CC3)c2F)nsc1NC(=O)NCCCCN1CCCC1 [Compound T124, 3-[[3-(cyclopropylcarbamoyl)-2,6-difluoro-phenyl]methoxy]-5-(4-pyrrolidin-1-ylbutylcarbamoylamino)isothiazole-4-carboxamide] | 0.0436 |
| 0.00078 | 26.9 | NC(=O)c1c(OCc2cc(C(=O)NC3CC3)ccc2Cl)nsc1NC(=O)NCCCCN1CCCC1 [Compound T123, 3-[[2-chloro-5-(cyclopropylcarbamoyl)phenyl]methoxy]-5-(4-pyrrolidin-1-ylbutylcarbamoylamino)isothiazole-4-carboxamide] | 0.0171 |

Source: patent US20260217698A1 (BEYANG THERAPEUTICS CO., LTD., priority 2022, published 2026)
